# Measured values published in US20240336654A1, “ANTIMICROBIAL PEPTIDOMIMETICS” (SPEXIS AG, priority 2021, published 2024).
# Where a SMILES comes first, the peptide text is derived from it. Bridges are numbered along the chain shown (N, C = ends). [ ]: non-standard residue; d: D form. Hyp = O=C(O)[C@@H]1C[C@@H](O)CN1; Cit = NC(=O)NCCC[C@H](N)C(=O)O; Pen = CC(C)(S)[C@H](N)C(=O)O; dDab = NCC[C@@H](N)C(=O)O; Dab = NCC[C@H](N)C(=O)O
# Experiments:
# Assay type in all cases: cell-based
# [1] = test system: human red blood cells (hRBC); details: red cells of human, 1 h, 200 μg/mL
# Outline: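 Peptides at 200 μg/mL incubated 1 h at 37 °C with 20% (v/v) washed human RBC, shaking. Hemolysis from supernatant OD540, expressed as percent of 2.5% Triton X-100 lysis, with PBS as 0%.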
# [2] = test system: Klebsiella pneumoniae SSI3010; details: SSI3010
# Outline: (§1)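 MICs were determined by CLSI broth microdilution in cation-adjusted Mueller-Hinton II broth with about 5×10^5 CFU/mL inoculum. Peptides were tested in two-fold serial dilutions with 0.002% polysorbate 80 final. MIC in μg/mL is the lowest concentration with no visible growth after 18-20 h at 35 °C.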
# [3] = test system: Escherichia coli MCR-1 Af 45; details: MCR-1 Af 45
# Outline: as §1
# [4] = test system: Escherichia coli ATCC 25922; details: ATCC 25922
# Outline: as §1
smiles,measurement,setting,value
"CC[C@H](C)[C@@H]1NC(=O)[C@@H](CCN)NC(=O)[C@H]([C@@H](C)O)NC(=O)[C@H](CCN)NC(=O)[C@H](CCCNC(=N)N)NC(=O)[C@H](CC(N)=O)NC(=O)[C@H](CO)NC(=O)[C@H](Cc2ccc(O)cc2)NC(=O)[C@@H](NC(=O)[C@@H](NC(=O)[C@@H]2C[C@@H](O)CN2C(=O)[C@@H](N)C(C)C)[C@@H](C)CC)C(C)(C)SSC[C@@H](C(=O)N[C@@H](Cc2ccc(O)cc2)C(=O)O)NC(=O)[C@H](CCN)NC(=O)[C@H](CCN)NC1=O [Example 42, Val-Hyp-Ile-Pen-Tyr-Ser-Asn-Arg-Dab-Thr-^DDab-Ile-Dab-Dab-Cys-Tyr] (H-V[Hyp]I[Pen]YSNR[Dab]T[dDab]I[Dab][Dab]CY-OH; disulfide 4-15)",Hemolysis at 0.2 g/L,[1],<1%
same,Klebsiella pneumoniae SSI3010 MIC,[2],0.25 µg/mL
same,Escherichia coli MCR-1 Af45 MIC,[3],0.125 µg/mL
same,Escherichia coli ATCC 25922 MIC,[4],0.125 µg/mL
"CC[C@H](C)[C@H](NC(=O)[C@@H]1C[C@@H](O)CN1C(=O)[C@@H](N)C(C)C)C(=O)N[C@@H]1C(=O)N[C@@H](Cc2ccc(O)cc2)C(=O)N[C@@H](CO)C(=O)N[C@@H](CC(N)=O)C(=O)N[C@@H](CCCNC(=N)N)C(=O)N[C@@H](CCN)C(=O)N[C@@H]([C@@H](C)O)C(=O)N[C@H](CCN)C(=O)N[C@@H](CC(N)=O)C(=O)N[C@@H](CCN)C(=O)N[C@@H](CCN)C(=O)N[C@H](C(=O)N[C@@H](Cc2ccc(O)cc2)C(=O)O)CSSC1(C)C [Example 43, Val-Hyp-Ile-Pen-Tyr-Ser-Asn-Arg-Dab-Thr-^DDab-Asn-Dab-Dab-Cys-Tyr] (H-V[Hyp]I[Pen]YSNR[Dab]T[dDab]N[Dab][Dab]CY-OH; disulfide 4-15)",Hemolysis at 0.2 g/L,[1],<1%
same,Klebsiella pneumoniae SSI3010 MIC,[2],0.5 µg/mL
same,Escherichia coli MCR-1 Af45 MIC,[3],0.25 µg/mL
same,Escherichia coli ATCC 25922 MIC,[4],0.25 µg/mL
"CC[C@H](C)[C@H](NC(=O)[C@@H]1C[C@@H](O)CN1C(=O)[C@@H](N)C(C)C)C(=O)N[C@@H]1C(=O)N[C@@H](Cc2ccc(O)cc2)C(=O)N[C@@H](CO)C(=O)N[C@@H](CC(N)=O)C(=O)N[C@@H](CCCNC(=N)N)C(=O)N[C@@H](CCN)C(=O)N[C@@H]([C@@H](C)O)C(=O)N[C@H](CCN)C(=O)N[C@@H](CO)C(=O)N[C@@H](CCN)C(=O)N[C@@H](CCN)C(=O)N[C@H](C(=O)N[C@@H](Cc2ccc(O)cc2)C(=O)O)CSSC1(C)C [Example 44, Val-Hyp-Ile-Pen-Tyr-Ser-Asn-Arg-Dab-Thr-^DDab-Ser-Dab-Dab-Cys-Tyr] (H-V[Hyp]I[Pen]YSNR[Dab]T[dDab]S[Dab][Dab]CY-OH; disulfide 4-15)",Hemolysis at 0.2 g/L,[1],<1%
same,Klebsiella pneumoniae SSI3010 MIC,[2],0.25 µg/mL
same,Escherichia coli MCR-1 Af45 MIC,[3],0.125 µg/mL
same,Escherichia coli ATCC 25922 MIC,[4],0.25 µg/mL
"CC[C@H](C)[C@H](NC(=O)[C@@H]1C[C@@H](O)CN1C(=O)[C@@H](N)C(C)C)C(=O)N[C@@H]1C(=O)N[C@@H](Cc2ccc(O)cc2)C(=O)N[C@@H](CCN)C(=O)N[C@@H](CC(N)=O)C(=O)N[C@@H](CCCNC(=N)N)C(=O)N[C@@H](CCN)C(=O)N[C@@H]([C@@H](C)O)C(=O)N[C@H](CCN)C(=O)N[C@@H](CCCCN)C(=O)N[C@@H](CO)C(=O)N[C@@H](CCN)C(=O)N[C@H](C(=O)N[C@@H](Cc2ccc(O)cc2)C(=O)O)CSSC1(C)C [Example 45, Val-Hyp-Ile-Pen-Tyr-Dab-Asn-Arg-Dab-Thr-^DDab-Lys-Ser-Dab-Cys-Tyr] (H-V[Hyp]I[Pen]Y[Dab]NR[Dab]T[dDab]KS[Dab]CY-OH; disulfide 4-15)",Hemolysis at 0.2 g/L,[1],<1%
same,Klebsiella pneumoniae SSI3010 MIC,[2],0.0625 µg/mL
same,Escherichia coli MCR-1 Af45 MIC,[3],0.125 µg/mL
same,Escherichia coli ATCC 25922 MIC,[4],0.125 µg/mL
"CC[C@H](C)[C@H](NC(=O)[C@@H]1C[C@@H](O)CN1C(=O)[C@@H](N)C(C)C)C(=O)N[C@@H]1C(=O)N[C@@H](Cc2ccc(O)cc2)C(=O)N[C@@H](CO)C(=O)N[C@@H](CC(N)=O)C(=O)N[C@@H](CCCNC(=N)N)C(=O)N[C@@H](CCN)C(=O)N[C@@H]([C@@H](C)O)C(=O)N[C@H](CCN)C(=O)N[C@@H](CCCCN)C(=O)N[C@@H](C)C(=O)N[C@@H](CCN)C(=O)N[C@H](C(=O)N[C@@H](Cc2ccc(O)cc2)C(=O)O)CSSC1(C)C [Example 46, Val-Hyp-Ile-Pen-Tyr-Ser-Asn-Arg-Dab-Thr-^DDab-Lys-Ala-Dab-Cys-Tyr] (H-V[Hyp]I[Pen]YSNR[Dab]T[dDab]KA[Dab]CY-OH; disulfide 4-15)",Hemolysis at 0.2 g/L,[1],<1%
same,Klebsiella pneumoniae SSI3010 MIC,[2],0.5 µg/mL
same,Escherichia coli MCR-1 Af45 MIC,[3],0.25 µg/mL
same,Escherichia coli ATCC 25922 MIC,[4],0.5 µg/mL
"CC[C@H](C)[C@H](NC(=O)[C@@H]1C[C@@H](O)CN1C(=O)[C@@H](N)C(C)C)C(=O)N[C@@H]1C(=O)N[C@@H](Cc2ccc(O)cc2)C(=O)N[C@@H](CO)C(=O)N[C@@H](CC(N)=O)C(=O)N[C@@H](CCCNC(=N)N)C(=O)N[C@@H](CCN)C(=O)N[C@@H]([C@@H](C)O)C(=O)N[C@H](CCN)C(=O)N[C@@H](CCCCN)C(=O)N[C@@H](CO)C(=O)N[C@@H](CCN)C(=O)N[C@H](C(=O)N[C@@H](Cc2ccc(O)cc2)C(=O)O)CSSC1(C)C [Example 47, Val-Hyp-Ile-Pen-Tyr-Ser-Asn-Arg-Dab-Thr-^DDab-Lys-Ser-Dab-Cys-Tyr] (H-V[Hyp]I[Pen]YSNR[Dab]T[dDab]KS[Dab]CY-OH; disulfide 4-15)",Hemolysis at 0.2 g/L,[1],<1%
same,Klebsiella pneumoniae SSI3010 MIC,[2],0.5 µg/mL
same,Escherichia coli MCR-1 Af45 MIC,[3],0.25 µg/mL
same,Escherichia coli ATCC 25922 MIC,[4],0.25 µg/mL
"CC[C@H](C)[C@H](NC(=O)[C@@H]1C[C@@H](O)CN1C(=O)[C@@H](N)C(C)C)C(=O)N[C@@H]1C(=O)N[C@@H](Cc2ccc(O)cc2)C(=O)N[C@@H](CCN)C(=O)N[C@@H](CC(N)=O)C(=O)N[C@@H](CCCNC(=N)N)C(=O)N[C@@H](CCN)C(=O)N[C@@H]([C@@H](C)O)C(=O)N[C@H](CCN)C(=O)N[C@@H](CCCCN)C(=O)N[C@@H](CO)C(=O)N[C@@H](CO)C(=O)N[C@H](C(=O)N[C@@H](Cc2ccc(O)cc2)C(=O)O)CSSC1(C)C [Example 48, Val-Hyp-Ile-Pen-Tyr-Dab-Asn-Arg-Dab-Thr-^DDab-Lys-Ser-Ser-Cys-Tyr] (H-V[Hyp]I[Pen]Y[Dab]NR[Dab]T[dDab]KSSCY-OH; disulfide 4-15)",Hemolysis at 0.2 g/L,[1],<1%
same,Klebsiella pneumoniae SSI3010 MIC,[2],0.5 µg/mL
same,Escherichia coli MCR-1 Af45 MIC,[3],0.25 µg/mL
same,Escherichia coli ATCC 25922 MIC,[4],0.25 µg/mL
"CC[C@H](C)[C@H](NC(=O)[C@@H]1C[C@@H](O)CN1C(=O)[C@@H](N)C(C)C)C(=O)N[C@@H]1C(=O)N[C@@H](Cc2ccc(O)cc2)C(=O)N[C@@H](CCN)C(=O)N[C@@H](CC(N)=O)C(=O)N[C@@H](CCCNC(=N)N)C(=O)N[C@@H](CCN)C(=O)N[C@@H]([C@@H](C)O)C(=O)N[C@H](CCN)C(=O)N[C@@H](CCCCN)C(=O)N[C@@H]([C@@H](C)O)C(=O)N[C@@H](CCCNC(N)=O)C(=O)N[C@H](C(=O)N[C@@H](Cc2ccc(O)cc2)C(=O)O)CSSC1(C)C [Example 49, Val-Hyp-Ile-Pen-Tyr-Dab-Asn-Arg-Dab-Thr-^DDab-Lys-Thr-Cit-Cys-Tyr] (H-V[Hyp]I[Pen]Y[Dab]NR[Dab]T[dDab]KT[Cit]CY-OH; disulfide 4-15)",Hemolysis at 0.2 g/L,[1],<1%
same,Klebsiella pneumoniae SSI3010 MIC,[2],0.5 µg/mL
same,Escherichia coli MCR-1 Af45 MIC,[3],0.25 µg/mL
same,Escherichia coli ATCC 25922 MIC,[4],0.25 µg/mL
"CC[C@H](C)[C@@H]1NC(=O)[C@H]([C@@H](C)O)NC(=O)[C@H](CCCCN)NC(=O)[C@@H](CCN)NC(=O)[C@H]([C@@H](C)O)NC(=O)[C@H](CCN)NC(=O)[C@H](CCCNC(=N)N)NC(=O)[C@H](CC(N)=O)NC(=O)[C@H](CCN)NC(=O)[C@H](Cc2ccc(O)cc2)NC(=O)[C@@H](NC(=O)[C@@H](NC(=O)[C@@H]2C[C@@H](O)CN2C(=O)[C@@H](N)C(C)C)[C@@H](C)CC)C(C)(C)SSC[C@@H](C(=O)N[C@@H](Cc2ccc(O)cc2)C(=O)O)NC1=O [Example 50, Val-Hyp-Ile-Pen-Tyr-Dab-Asn-Arg-Dab-Thr-^DDab-Lys-Thr-Ile-Cys-Tyr] (H-V[Hyp]I[Pen]Y[Dab]NR[Dab]T[dDab]KTICY-OH; disulfide 4-15)",Hemolysis at 0.2 g/L,[1],<1%
same,Klebsiella pneumoniae SSI3010 MIC,[2],1 µg/mL
same,Escherichia coli MCR-1 Af45 MIC,[3],0.5 µg/mL
same,Escherichia coli ATCC 25922 MIC,[4],0.5 µg/mL
"CC[C@H](C)[C@H](NC(=O)[C@@H]1C[C@@H](O)CN1C(=O)[C@@H](N)C(C)C)C(=O)N[C@@H]1C(=O)N[C@@H](Cc2ccc(O)cc2)C(=O)N[C@@H](CCN)C(=O)N[C@@H](CC(N)=O)C(=O)N[C@@H](CCCNC(=N)N)C(=O)N[C@@H](CCN)C(=O)N[C@@H]([C@@H](C)O)C(=O)N[C@H](CCN)C(=O)N[C@@H](CCCCN)C(=O)N[C@@H]([C@@H](C)O)C(=O)N[C@@H](CC(N)=O)C(=O)N[C@H](C(=O)N[C@@H](Cc2ccc(O)cc2)C(=O)O)CSSC1(C)C [Example 51, Val-Hyp-Ile-Pen-Tyr-Dab-Asn-Arg-Dab-Thr-^DDab-Lys-Thr-Asn-Cys-Tyr] (H-V[Hyp]I[Pen]Y[Dab]NR[Dab]T[dDab]KTNCY-OH; disulfide 4-15)",Hemolysis at 0.2 g/L,[1],<1%
same,Klebsiella pneumoniae SSI3010 MIC,[2],0.5 µg/mL
same,Escherichia coli MCR-1 Af45 MIC,[3],0.25 µg/mL
same,Escherichia coli ATCC 25922 MIC,[4],0.25 µg/mL
